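Growth conditions: 96-well plates. Treatment: test compound, 48 hours, 5 concentrations. Analysis: linear interpolation between bracketing concentrations; unreached endpoints set to highest concentration. GI50 marks 50% less growth.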 The source made the active and inactive calls. No stated cut-off is given here; in the data, active = GI50 up to about 1.1 µM and inactive = higher.
Tests used:
Experiment in all cases: NCI anticancer screen, dose series, 48 h
HT-29 = test system: HT-29
DU-145 = test system: DU-145
NCI-H226 = test system: NCI-H226
RXF 393 = test system: RXF 393
HCT-15 = test system: HCT-15
TK-10 = test system: TK-10
SK-MEL-28 = test system: SK-MEL-28
HCC 2998 = test system: HCC 2998
MDA-MB-231 = test system: MDA-MB-231
ACHN = test system: ACHN
A498 = test system: A498
SN12C = test system: SN12C
UACC-62 = test system: UACC-62
SK-MEL-5 = test system: SK-MEL-5
NCI-H460 = test system: NCI-H460
SR = test system: SR
OVCAR-8 = test system: OVCAR-8
IGROV-1 = test system: IGROV-1
OVCAR-4 = test system: OVCAR-4

For `O=c1ssc2ncccc12`, the GI50 (HT-29) was 23.6 µM (inactive), the GI50 (DU-145) was 33.7 µM (inactive) and the GI50 (NCI-H226) was 0.212 µM (active). The GI50 (RXF 393) was 18.1 µM (inactive), the GI50 (HCT-15) was 12.1 µM and the GI50 (TK-10) was 35.5 µM (inactive). The GI50 (SK-MEL-28) was 24.8 µM (inactive), the GI50 (HCC 2998) was 19.8 µM (inactive) and the GI50 (MDA-MB-231) was 11.9 µM (inactive). The GI50 (ACHN) was 17.4 µM (inactive), the GI50 (A498) was 59.3 µM (inactive) and the GI50 (SN12C) was 15.1 µM (inactive). The GI50 (UACC-62) was 11.6 µM (inactive), the GI50 (SK-MEL-5) was 13.2 µM (inactive) and the GI50 (NCI-H460) was 20.4 µM (inactive). For the same compound, the GI50 (SR) was 48.2 µM (inactive).

With `N#CCCn1[nH]c(=O)c(Cl)c(Cl)c1=O` the GI50 (HT-29) was 11.8 µM (inactive), the GI50 (NCI-H226) was 23 µM (inactive) and the GI50 (RXF 393) was 17.1 µM (inactive). For the same compound, the GI50 (OVCAR-8) was 15.7 µM (inactive), the GI50 (HCT-15) was 10.4 µM and the GI50 (TK-10) was 35.8 µM (inactive). The GI50 (SK-MEL-28) was 15.8 µM (inactive), the GI50 (HCC 2998) was 13.1 µM (inactive) and the GI50 (ACHN) was 17 µM (inactive). The GI50 (A498) was 20.2 µM (inactive), the GI50 (SN12C) was 17.4 µM (inactive) and the GI50 (IGROV-1) was 17.1 µM (inactive). The GI50 (NCI-H460) was 13.3 µM (inactive), the GI50 (SR) was 14.7 µM (inactive) and the GI50 (OVCAR-4) was 18 µM (inactive).

In the case of `c1ccc2cc(C3NCCc4nc[nH]c43)ccc2c1` (stereo not given), the GI50 (HT-29) is reported as 41.7 µM (inactive), the GI50 (NCI-H226) is reported as > 100 µM (inactive) and the GI50 (RXF 393) is reported as 61.1 µM (inactive). For the same compound, the GI50 (OVCAR-8) was 89.7 µM (inactive), the GI50 (HCT-15) was 42.6 µM and the GI50 (TK-10) was 28 µM (inactive). For the same compound, the GI50 (SK-MEL-28) was > 100 µM (inactive), the GI50 (HCC 2998) was 59.6 µM (inactive) and the GI50 (ACHN) was 23.5 µM (inactive). For the same compound, the GI50 (A498) was 25.9 µM (inactive), the GI50 (SN12C) was 97.5 µM (inactive) and the GI50 (UACC-62) was 55.7 µM (inactive). For the same compound, the GI50 (IGROV-1) was > 100 µM (inactive), the GI50 (SK-MEL-5) was 19.1 µM (inactive) and the GI50 (NCI-H460) was 52 µM (inactive). The GI50 (SR) was 54.2 µM (inactive) and the GI50 (OVCAR-4) was 57 µM (inactive).

`N=C1OC(c2ccc3c(c2)OCO3)C(NNS(=O)(=O)c2ccccc2)=C1O` (stereo not given) was tested, and the GI50 (HT-29) was > 100 µM (inactive), the GI50 (NCI-H226) was > 100 µM (inactive) and the GI50 (RXF 393) was > 100 µM (inactive). The GI50 (OVCAR-8) was > 100 µM (inactive), the GI50 (HCT-15) was greater than 100 µM and the GI50 (TK-10) was > 100 µM (inactive). The GI50 (SK-MEL-28) was > 100 µM (inactive), the GI50 (HCC 2998) was > 100 µM (inactive) and the GI50 (ACHN) was > 100 µM (inactive). For the same compound, the GI50 (A498) was > 100 µM (inactive), the GI50 (SN12C) was > 100 µM (inactive) and the GI50 (UACC-62) was > 100 µM (inactive). For the same compound, the GI50 (IGROV-1) was > 100 µM (inactive), the GI50 (SK-MEL-5) was 38.1 µM (inactive) and the GI50 (NCI-H460) was > 100 µM (inactive). The GI50 (SR) was 61.2 µM (inactive) and the GI50 (OVCAR-4) was > 100 µM (inactive).

In the case of `O=[N+]([O-])c1cccnc1NCC1(CO)CCCC1`, the GI50 (HT-29) is reported as 19.3 µM (inactive), the GI50 (DU-145) is reported as 36 µM (inactive) and the GI50 (NCI-H226) is reported as 25.6 µM (inactive). For the same compound, the GI50 (RXF 393) was > 10 µM (inactive), the GI50 (OVCAR-8) was 19.4 µM (inactive) and the GI50 (HCT-15) was 18.5 µM. The GI50 (TK-10) was 27.2 µM (inactive), the GI50 (SK-MEL-28) was 23.2 µM (inactive) and the GI50 (HCC 2998) was 18.8 µM (inactive). For the same compound, the GI50 (ACHN) was 27 µM (inactive), the GI50 (A498) was 39.6 µM (inactive) and the GI50 (SN12C) was 22.3 µM (inactive). For the same compound, the GI50 (IGROV-1) was 18.3 µM (inactive), the GI50 (SK-MEL-5) was 17.1 µM (inactive) and the GI50 (NCI-H460) was 22.5 µM (inactive). The GI50 (SR) was 25.4 µM (inactive) and the GI50 (OVCAR-4) was 36.5 µM (inactive).

With `CN1NC2(CCCCC2)ON=C1c1ccccc1` the GI50 (HT-29) was > 100 µM (inactive), the GI50 (NCI-H226) was > 100 µM (inactive) and the GI50 (RXF 393) was > 100 µM (inactive). For the same compound, the GI50 (OVCAR-8) was > 100 µM (inactive), the GI50 (HCT-15) was greater than 100 µM and the GI50 (TK-10) was > 100 µM (inactive). For the same compound, the GI50 (SK-MEL-28) was > 100 µM (inactive), the GI50 (ACHN) was > 100 µM (inactive) and the GI50 (A498) was > 100 µM (inactive). The GI50 (SN12C) was > 100 µM (inactive), the GI50 (UACC-62) was > 100 µM (inactive) and the GI50 (IGROV-1) was > 100 µM (inactive). The GI50 (SK-MEL-5) was > 100 µM (inactive), the GI50 (NCI-H460) was > 100 µM (inactive) and the GI50 (SR) was > 100 µM (inactive). The GI50 (OVCAR-4) was > 100 µM (inactive).

With `O=C1CCCc2cc3c(cc21)CC1(C3)Cc2ccc3c(c2C1)C(=O)CCC3` (stereo not given) the GI50 (HT-29) was 16.3 µM (inactive), the GI50 (DU-145) was 39.8 µM (inactive) and the GI50 (NCI-H226) was 6.38 µM (inactive). For the same compound, the GI50 (RXF 393) was 37.1 µM (inactive), the GI50 (OVCAR-8) was 16.4 µM (inactive) and the GI50 (HCT-15) was 45.2 µM. The GI50 (TK-10) was 23.9 µM (inactive), the GI50 (SK-MEL-28) was 26.1 µM (inactive) and the GI50 (HCC 2998) was 71.8 µM (inactive). The GI50 (MDA-MB-231) was 29.2 µM (inactive), the GI50 (ACHN) was 5.18 µM (inactive) and the GI50 (A498) was 41.2 µM (inactive). The GI50 (SN12C) was 23.6 µM (inactive), the GI50 (IGROV-1) was 20.5 µM (inactive) and the GI50 (SK-MEL-5) was 2.2 µM (inactive). The GI50 (NCI-H460) was 26.5 µM (inactive), the GI50 (SR) was 7.45 µM (inactive) and the GI50 (OVCAR-4) was 13.9 µM (inactive).

`CC(=O)OCC1OC(n2c(C)c(C(C)=O)c(-c3cccc4ccccc34)c(C#N)c2=S)C(OC(C)=O)C(OC(C)=O)C1OC(C)=O` (stereo not given) was tested, and the GI50 (HT-29) was > 100 µM (inactive), the GI50 (DU-145) was > 100 µM (inactive) and the GI50 (NCI-H226) was > 100 µM (inactive). For the same compound, the GI50 (RXF 393) was > 100 µM (inactive), the GI50 (OVCAR-8) was > 100 µM (inactive) and the GI50 (HCT-15) was greater than 100 µM. For the same compound, the GI50 (TK-10) was > 100 µM (inactive), the GI50 (SK-MEL-28) was > 100 µM (inactive) and the GI50 (HCC 2998) was > 100 µM (inactive). For the same compound, the GI50 (MDA-MB-231) was > 100 µM (inactive), the GI50 (ACHN) was > 100 µM (inactive) and the GI50 (A498) was > 100 µM (inactive). The GI50 (SN12C) was > 100 µM (inactive), the GI50 (UACC-62) was > 100 µM (inactive) and the GI50 (IGROV-1) was > 100 µM (inactive). The GI50 (SK-MEL-5) was 28.7 µM (inactive), the GI50 (NCI-H460) was > 100 µM (inactive) and the GI50 (SR) was > 100 µM (inactive). The GI50 (OVCAR-4) was > 100 µM (inactive).
